Converted amounts (≈) assume the structure as drawn.
Assays:
[1] = system: Mycobacterium tuberculosis; test: Growth inhibition of Mycobacterium tuberculosis H37Rv at 6.25 ug/mL by microplate alamar blue assay; format: functional; details: read-out: GI
[2] = system: Mycobacterium tuberculosis; test: Antituberculosis activity against Mycobacterium tuberculosis H37Rv by microplate alamar blue assay; format: functional
[3] = system: Vero; test: Cytotoxicity against Vero cells; format: cell-based; details: Chlorocebus sabaeus

Structure (SMILES)	inhibition of growth at 6.25 µg/mL [1] [%]	MIC [2] [µg/mL]	IC50 [3] [µg/mL]
O=C1Nc2ccc([N+](=O)[O-])cc2/C1=N/NC(=S)Nc1ccc(F)cc1	24	–	–
CNC(=S)N/N=C1\C(=O)N(CN2CCCCC2)c2ccc(F)cc21	20	–	–
C=CCNC(=S)N/N=C1\C(=O)N(CN2CCOCC2)c2ccc(F)cc21	24	–	–
C=CCNC(=S)N/N=C1\C(=O)N(CN2CCCCC2)c2ccc(F)cc21	20	–	–
C=CCNC(=S)N/N=C1\C(=O)N(CN2CCCCC2)c2ccc([N+](=O)[O-])cc21	22	–	–
CCN1C(=O)CS/C1=N/N=C1\C(=O)Nc2ccc([N+](=O)[O-])cc21	0	–	–
CCCCNC(=S)N/N=C1\C(=O)N(CN2CCOCC2)c2ccc([N+](=O)[O-])cc21	30	–	–
O=C1/C(=N\NC(=S)NC2CCCCC2)c2cc([N+](=O)[O-])ccc2N1CN1CCOCC1	90	6.25 (≈ 14 µM)	–
O=C1/C(=N\NC(=S)Nc2ccccc2)c2cc([N+](=O)[O-])ccc2N1CN1CCOCC1	93	> 6.25	2.8 (≈ 6.36 µM)
O=C1/C(=N\NC(=S)NC2CCCCC2)c2cc(F)ccc2N1CN1CCOCC1	33	–	–
O=C1/C(=N\NC(=S)NCc2ccccc2)c2cc(F)ccc2N1CN1CCOCC1	0	–	–
Cc1ccc(NC(=S)N/N=C2\C(=O)N(CN3CCCCC3)c3ccc(F)cc32)cc1	51	–	–
O=C1/C(=N\NC(=S)Nc2ccc(Cl)cc2)c2cc(F)ccc2N1CN1CCOCC1	58	–	–
O=C1/C(=N\NC(=S)Nc2ccc(Cl)cc2)c2cc(F)ccc2N1CN1CCCCC1	63	–	–
O=C1/C(=N\NC(=S)Nc2ccccc2)c2cc([N+](=O)[O-])ccc2N1CN1CCCCC1	31	–	–
Cc1ccc(NC(=S)N/N=C2\C(=O)N(CN3CCOCC3)c3ccc([N+](=O)[O-])cc32)cc1	92	> 6.25	17 (≈ 37.4 µM)
O=C1/C(=N\NC(=S)Nc2ccc(Cl)cc2)c2cc([N+](=O)[O-])ccc2N1CN1CCOCC1	65	–	–
O=C1/C(=N\NC(=S)Nc2ccc(F)cc2)c2cc(F)ccc2N1CN1CCCCC1	38	–	–
O=C1/C(=N\NC(=S)Nc2ccc(Cl)cc2)c2cc([N+](=O)[O-])ccc2N1CN1CCCCC1	54	–	–
C=CCN1C(=O)CS/C1=N/N=C1\C(=O)Nc2ccc([N+](=O)[O-])cc21	2	–	–
O=C1Nc2ccc([N+](=O)[O-])cc2/C1=N/N=C1/SCC(=O)N1c1ccccc1	0	–	–
Cc1ccc(N2C(=O)CS/C2=N/N=C2\C(=O)Nc3ccc([N+](=O)[O-])cc32)cc1	17	–	–
O=C1Nc2ccc([N+](=O)[O-])cc2/C1=N/N=C1/SCC(=O)N1c1ccc(Cl)cc1	0	–	–

Structure (SMILES)	inhibition of growth at 6.25 µg/mL [1] [%]	MIC [2] [µg/mL]	IC50 [3] [µg/mL]
C=CCN1C(=O)C(C)S/C1=N/N=C1\C(=O)Nc2ccc([N+](=O)[O-])cc21 (configuration not stated)	3	–	–
CCCCN1C(=O)C(C)S/C1=N/N=C1\C(=O)Nc2ccc([N+](=O)[O-])cc21 (configuration not stated)	10	–	–
CC1S/C(=N/N=C2\C(=O)Nc3ccc([N+](=O)[O-])cc32)N(c2ccccc2)C1=O (configuration not stated)	9	–	–
CC1S/C(=N/N=C2\C(=O)Nc3ccc([N+](=O)[O-])cc32)N(c2ccc(Br)cc2)C1=O (configuration not stated)	3	–	–
O=C1Nc2ccc([N+](=O)[O-])cc2/C1=N/NC(=S)NC1CCCCC1	90	> 6.25	4.74 (≈ 13.6 µM)
Cc1ccc(NC(=S)N/N=C2\C(=O)Nc3ccc([N+](=O)[O-])cc32)cc1	93	6.25 (≈ 17.6 µM)	2.45 (≈ 6.89 µM)
O=C1Nc2ccc([N+](=O)[O-])cc2/C1=N/NC(=S)Nc1ccc(Br)cc1	90	> 6.25	2.59 (≈ 6.16 µM)
O=C1Nc2ccc(F)cc2/C1=N/NC(=S)Nc1ccc(Cl)cc1	37	–	–
O=C1Nc2ccc(F)cc2/C1=N/NC(=S)Nc1ccc(F)cc1	58	–	–
CCNC(=S)N/N=C1\C(=O)Nc2ccc([N+](=O)[O-])cc21	0	–	–
CCCCNC(=S)N/N=C1\C(=O)Nc2ccc([N+](=O)[O-])cc21	42	–	–
CCCCNC(=S)N/N=C1\C(=O)Nc2ccc(F)cc21	16	–	–
O=C1Nc2ccc(F)cc2/C1=N/NC(=S)NC1CCCCC1	39	–	–
Cc1ccc(NC(=S)N/N=C2\C(=O)Nc3ccc(F)cc32)cc1	36	–	–
CCNC(=S)N/N=C1\C(=O)Nc2ccc(F)cc21	8	–	–
CC1S/C(=N/N=C2\C(=O)Nc3ccc([N+](=O)[O-])cc32)N(c2ccc([N+](=O)[O-])cc2)C1=O (configuration not stated)	9	–	–
O=C1Nc2ccc([N+](=O)[O-])cc2/C1=N/NC(=S)Nc1ccc([N+](=O)[O-])cc1	2	–	–
CNC(=S)N/N=C1\C(=O)N(CN2CCOCC2)c2ccc(F)cc21	12	–	–
O=C1Nc2ccc([N+](=O)[O-])cc2/C1=N/N=C1/SCC(=O)N1c1ccc(F)cc1	0	–	–
CC1S/C(=N/N=C2\C(=O)Nc3ccc([N+](=O)[O-])cc32)N(C2CCCCC2)C1=O (configuration not stated)	28	–	–
CCCCN1C(=O)CS/C1=N/N=C1\C(=O)Nc2ccc([N+](=O)[O-])cc21	0	–	–
O=C1Nc2ccc([N+](=O)[O-])cc2/C1=N/N=C1/SCC(=O)N1C1CCCCC1	0	–	–
O=C1Nc2ccc([N+](=O)[O-])cc2/C1=N/N=C1/SCC(=O)N1c1ccc(Br)cc1	0	–	–

Structure (SMILES)	inhibition of growth at 6.25 µg/mL [1] [%]	MIC [2] [µg/mL]	IC50 [3] [µg/mL]
O=C1/C(=N\NC(=S)Nc2ccccc2)c2cc(F)ccc2N1CN1CCCCC1	45	–	–
CN1C(=O)CS/C1=N/N=C1\C(=O)Nc2ccc([N+](=O)[O-])cc21	0	–	–
O=C1Nc2ccc(F)cc2/C1=N/NC(=S)Nc1ccccc1	61	–	–
CNC(=S)N/N=C1\C(=O)N(CN2CCOCC2)c2ccc([N+](=O)[O-])cc21	96	> 6.25	7.61 (≈ 20.1 µM)
O=C1/C(=N\NC(=S)NC2CCCCC2)c2cc([N+](=O)[O-])ccc2N1CN1CCCCC1	87	–	–
Cc1ccc(NC(=S)N/N=C2\C(=O)N(CN3CCCCC3)c3ccc([N+](=O)[O-])cc32)cc1	88	–	–
O=C1Nc2ccc([N+](=O)[O-])cc2/C1=N/NC(=S)Nc1ccccc1	33	–	–
CC1S/C(=N/N=C2\C(=O)Nc3ccc([N+](=O)[O-])cc32)N(c2ccc(F)cc2)C1=O (configuration not stated)	5	–	–
Cc1ccc(N2C(=O)C(C)S/C2=N/N=C2\C(=O)Nc3ccc([N+](=O)[O-])cc32)cc1 (configuration not stated)	0	–	–
CC1S/C(=N/N=C2\C(=O)Nc3ccc([N+](=O)[O-])cc32)N(c2ccc(Cl)cc2)C1=O (configuration not stated)	0	–	–
O=C1Nc2ccc(F)cc2/C1=N/NC(=S)Nc1ccc([N+](=O)[O-])cc1	31	–	–
C=CCNC(=S)N/N=C1\C(=O)Nc2ccc([N+](=O)[O-])cc21	25	–	–
O=C1/C(=N\NC(=S)Nc2ccc(F)cc2)c2cc(F)ccc2N1CN1CCOCC1	48	–	–
CCCCNC(=S)N/N=C1\C(=O)N(CN2CCOCC2)c2ccc(F)cc21	34	–	–
O=C1/C(=N\NC(=S)NCc2ccccc2)c2cc(F)ccc2N1CN1CCCCC1	3	–	–
O=C1/C(=N\NC(=S)Nc2ccccc2)c2cc(F)ccc2N1CN1CCOCC1	56	–	–
CCNC(=S)N/N=C1\C(=O)N(CN2CCOCC2)c2ccc(F)cc21	1	–	–
CCNC(=S)N/N=C1\C(=O)N(CN2CCCCC2)c2ccc(F)cc21	2	–	–
O=C1Nc2ccc([N+](=O)[O-])cc2/C1=N/NC(=S)Nc1ccc(Cl)cc1	75	–	–
C=CCNC(=S)N/N=C1\C(=O)Nc2ccc(F)cc21	30	–	–
CO[C@H]1/C=C/O[C@@]2(C)Oc3c(C)c(O)c4c(O)c(c(/C=N/N5CCN(C)CC5)c(O)c4c3C2=O)NC(=O)/C(C)=C\C=C\[C@H](C)[C@H](O)[C@@H](C)[C@@H](O)[C@@H](C)[C@H](OC(C)=O)[C@@H]1C [RIFAMPIN]	97	0.125 (≈ 0.152 µM)	> 100
